Results: patent US11987588B2, “Modulators of the beta-3 adrenergic receptor useful for the treatment or prevention of heart failure and disorders related thereto” (Arena Pharmaceuticals, Inc., priority 2017, dated 2024)
pIC50: −log10 of the molar value.

The compounds below were run against Beta-3 Adrenergic Receptor (Homo sapiens (Human), UniProt P13945) (assay: Homogeneous Time-Resolved Fluorescence (HTRF) cAMP antagonist assay, IC50 determination). Conditions: CHO-K1 cells stably expressing recombinant receptor, isoproterenol at EC90.
Assay type: cell-based
In short: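 CHO-K1 cells stably expressing the recombinant receptor were preincubated with compound (10-point, 5-fold dilutions; top final typically 10 or 100 μM) in PBS with 1 mM IBMX, then stimulated with isoproterenol at its EC90 for 1 h at room temperature. cAMP was read by HTRF against an on-plate standard curve.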

Sequence of Beta-3 Adrenergic Receptor (P13945 whole entry, species assumed): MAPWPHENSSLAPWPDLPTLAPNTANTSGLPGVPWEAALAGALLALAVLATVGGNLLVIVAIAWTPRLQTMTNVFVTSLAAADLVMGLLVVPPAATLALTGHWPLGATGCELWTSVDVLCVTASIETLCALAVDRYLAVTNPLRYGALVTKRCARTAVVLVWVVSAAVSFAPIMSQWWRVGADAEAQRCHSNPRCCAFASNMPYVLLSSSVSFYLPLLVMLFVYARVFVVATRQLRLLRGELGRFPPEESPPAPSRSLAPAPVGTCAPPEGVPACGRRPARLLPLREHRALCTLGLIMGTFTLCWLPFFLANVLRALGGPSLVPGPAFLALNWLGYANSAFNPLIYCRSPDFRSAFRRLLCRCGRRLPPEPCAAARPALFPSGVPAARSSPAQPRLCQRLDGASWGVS

pIC50	SMILES
6.97	CNS(=O)(=O)c1cccc(OC[C@@H](O)CNC2COC3(CCN(S(=O)(=O)c4cccc(-c5ccc(CN[C@@H](CO)C(N)=O)cc5)c4)CC3)C2)c1 (stereo partly drawn) [Compound 345, (2S)-3-hydroxy-2-((3′-(3-((S)-2-hydroxy-3-(3-(N-methylsulfamoyl)phenoxy)propylamino)-1-oxa-8-azaspiro[4.5]decan-8-ylsulfonyl)biphenyl-4-yl)methylamino)propanamide]
7.09	CNS(=O)(=O)c1cccc(OC[C@@H](O)CNC2COC3(CCN(S(=O)(=O)c4ccc(-c5ccc(CN)cc5)cc4OC(F)(F)F)CC3)C2)c1 (stereo partly drawn) [Compound 403, 3-((2S)-3-(8-(4′-(aminomethyl)-3-(trifluoromethoxy)biphenyl-4-ylsulfonyl)-1-oxa-8-azaspiro[4.5]decan-3-ylamino)-2-hydroxypropoxy)-N-methylbenzenesulfonamide]
7.87	CCNS(=O)(=O)c1cccc(OC[C@@H](O)CNC2COC3(CCN(S(=O)(=O)c4cccc(-c5ccc(N)nc5)c4)CC3)C2)c1 (stereo partly drawn) [Compound 212, 3-((2S)-3-(8-(3-(6-aminopyridin-3-yl)phenylsulfonyl)-1-oxa-8-azaspiro[4.5]decan-3-ylamino)-2-hydroxypropoxy)-N-ethylbenzenesulfonamide]
7.43	CN(C)S(=O)(=O)c1cccc(OC[C@@H](O)CNC2COC3(CCN(S(=O)(=O)c4ccc(Cl)c5nonc45)CC3)C2)c1 (stereo partly drawn) [Compound 257, 3-((2S)-3-(8-(7-chlorobenzo[c][1,2,5]oxadiazol-4-ylsulfonyl)-1-oxa-8-azaspiro[4.5]decan-3-ylamino)-2-hydroxypropoxy)-N,N-dimethylbenzenesulfonamide]
7.75	CCOc1ccc(-c2ccc(CN)cc2)cc1S(=O)(=O)N1CCC2(CC1)C[C@@H](NC[C@H](O)COc1cccc(S(N)(=O)=O)c1)CO2 [Compound 567, 3-((S)-3-((R)-8-(4′-(aminomethyl)-4-ethoxybiphenyl-3-ylsulfonyl)-1-oxa-8-azaspiro[4.5]decan-3-ylamino)-2-hydroxypropoxy)benzenesulfonamide]
7.29	C[C@H](CO)NS(=O)(=O)c1cccc(OC[C@@H](O)CN[C@@H]2COC3(CCN(S(=O)(=O)c4cccc(-c5ccc(CN)cc5)c4)CC3)C2)c1 [Compound 424, 3-((S)-3-((S)-8-(4′-(aminomethyl)biphenyl-3-ylsulfonyl)-1-oxa-8-azaspiro[4.5]decan-3-ylamino)-2-hydroxypropoxy)-N—((R)-1-hydroxypropan-2-yl)benzenesulfonamide]
7.61	CNS(=O)(=O)c1cccc(OC[C@@H](O)CN[C@@H]2COC3(CCN(S(=O)(=O)c4ccc(OC)c(C)c4)CC3)C2)c1 [Compound 266, 3-((S)-2-hydroxy-3-((S)-8-(4-methoxy-3-methylphenylsulfonyl)-1-oxa-8-azaspiro[4.5]decan-3-ylamino)propoxy)-N-methylbenzenesulfonamide]
7.60	CNS(=O)(=O)c1cccc(OC[C@@H](O)CN[C@H]2COC3(CCN(S(=O)(=O)c4cc5c(nc4N)OCCN5C)CC3)C2)c1 [Compound 455, 3-((S)-3-((R)-8-(6-amino-1-methyl-2,3-dihydro-1H-pyrido[2,3-b][1,4]oxazin-7-ylsulfonyl)-1-oxa-8-azaspiro[4.5]decan-3-ylamino)-2-hydroxypropoxy)-N-methylbenzenesulfonamide]
7.87	CNS(=O)(=O)c1cccc(OC[C@@H](O)CNC2COC3(CCN(S(=O)(=O)c4cccc(-c5cnn(C)c5)c4)CC3)C2)c1 (stereo partly drawn) [Compound 61, 3-((2S)-2-hydroxy-3-(8-(3-(1-methyl-1H-pyrazol-4-yl)phenylsulfonyl)-1-oxa-8-azaspiro[4.5]decan-3-ylamino)propoxy)-N-methylbenzenesulfonamide]
7.58	CNS(=O)(=O)c1cccc(OC[C@@H](O)CNC2COC3(CCN(S(=O)(=O)c4cccc(-c5ccc(C)nc5)c4)CC3)C2)c1 (stereo partly drawn) [Compound 111, 3-((2S)-2-hydroxy-3-(8-(3-(6-methylpyridin-3-yl)phenylsulfonyl)-1-oxa-8-azaspiro[4.5]decan-3-ylamino)propoxy)-N-methylbenzenesulfonamide]
6.74	CN1CCOc2ncc(S(=O)(=O)N3CCC4(CC3)C[C@@H](NC[C@H](O)COc3cccc(S(=O)(=O)N[C@H]5CCC[C@@H]5O)c3)CO4)cc21 [Compound 427, 3-((S)-2-hydroxy-3-((R)-8-(1-methyl-2,3-dihydro-1H-pyrido[2,3-b][1,4]oxazin-7-ylsulfonyl)-1-oxa-8-azaspiro[4.5]decan-3-ylamino)propoxy)-N-((1S,2S)-2-hydroxycyclopentyl)benzenesulfonamide]
7.86	CNS(=O)(=O)c1cccc(OC[C@@H](O)CNC2COC3(CCN(S(=O)(=O)c4cc(C)cc(C)c4)CC3)C2)c1 (stereo partly drawn) [Compound 23, 3-((2S)-3-(8-(3,5-dimethylphenylsulfonyl)-1-oxa-8-azaspiro[4.5]decan-3-ylamino)-2-hydroxypropoxy)-N-methylbenzenesulfonamide]
7.68	CNS(=O)(=O)c1cccc(OC[C@@H](O)CNC2COC3(CCN(S(=O)(=O)c4cccc(-c5ccccc5)c4)CC3)C2)c1 (stereo partly drawn) [Compound 31, 3-((2S)-3-(8-(biphenyl-3-ylsulfonyl)-1-oxa-8-azaspiro[4.5]decan-3-ylamino)-2-hydroxypropoxy)-N-methylbenzenesulfonamide]
7.47	CNS(=O)(=O)c1cccc(OC[C@@H](O)CNC2COC3(CCN(S(=O)(=O)c4ccc(-c5ccc(F)cc5)cc4)CC3)C2)c1 (stereo partly drawn) [Compound 122, 3-((2S)-3-(8-(4′-fluorobiphenyl-4-ylsulfonyl)-1-oxa-8-azaspiro[4.5]decan-3-ylamino)-2-hydroxypropoxy)-N-methylbenzenesulfonamide]
7.98	CNS(=O)(=O)c1cccc(OC[C@@H](O)CNC2COC3(CCN(S(=O)(=O)c4cccc(-c5ccc(N)nc5)c4)CC3)C2)c1 (stereo partly drawn) [Compound 103, 3-((2S)-3-(8-(3-(6-aminopyridin-3-yl)phenylsulfonyl)-1-oxa-8-azaspiro[4.5]decan-3-ylamino)-2-hydroxypropoxy)-N-methylbenzenesulfonamide]
6.24	C[C@H](O)CNS(=O)(=O)c1cccc(OC[C@@H](O)CN[C@H]2COC3(CCN(S(=O)(=O)c4cnc5c(c4)N(C)CCO5)CC3)C2)c1 [Compound 434, 3-((S)-2-hydroxy-3-((R)-8-(1-methyl-2,3-dihydro-1H-pyrido[2,3-b][1,4]oxazin-7-ylsulfonyl)-1-oxa-8-azaspiro[4.5]decan-3-ylamino)propoxy)-N—((S)-2-hydroxypropyl)benzenesulfonamide]
7.36	CNS(=O)(=O)c1cccc(OC[C@@H](O)CNC2COC3(CCN(S(=O)(=O)c4ccc(OC)c(OC)c4)CC3)C2)c1 (stereo partly drawn) [Compound 153, 3-((2S)-3-(8-(3,4-dimethoxyphenylsulfonyl)-1-oxa-8-azaspiro[4.5]decan-3-ylamino)-2-hydroxypropoxy)-N-methylbenzenesulfonamide]
7.37	CNS(=O)(=O)c1cccc(OC[C@@H](O)CNC2COC3(CCN(S(=O)(=O)c4ccc5[nH]ncc5c4)CC3)C2)c1 (stereo partly drawn) [Compound 325, 3-((2S)-3-(8-(1H-indazol-5-ylsulfonyl)-1-oxa-8-azaspiro[4.5]decan-3-ylamino)-2-hydroxypropoxy)-N-methylbenzenesulfonamide]
7.53	Cc1c(S(=O)(=O)N2CCC3(CC2)CC(NC[C@H](O)COc2cccc(S(=O)(=O)N(C)C)c2)CO3)cnn1-c1ccccc1 (stereo partly drawn) [Compound 252, 3-((2S)-2-hydroxy-3-(8-(5-methyl-1-phenyl-1H-pyrazol-4-ylsulfonyl)-1-oxa-8-azaspiro[4.5]decan-3-ylamino)propoxy)-N,N-dimethylbenzenesulfonamide]
7.87	CNS(=O)(=O)c1cccc(OC[C@@H](O)CN[C@H]2COC3(CCN(S(=O)(=O)c4cnc5ccccc5c4O)CC3)C2)c1 [Compound 541, 3-((S)-2-hydroxy-3-((R)-8-(4-hydroxyquinolin-3-ylsulfonyl)-1-oxa-8-azaspiro[4.5]decan-3-ylamino)propoxy)-N-methylbenzenesulfonamide]
7.68	CNS(=O)(=O)c1cccc(OC[C@@H](O)CN[C@H]2COC3(CCN(S(=O)(=O)c4cccc(Cl)c4)CC3)C2)c1 [Compound 592, 3-((S)-3-((R)-8-(3-chlorophenylsulfonyl)-1-oxa-8-azaspiro[4.5]decan-3-ylamino)-2-hydroxypropoxy)-N-methylbenzenesulfonamide]
7.56	CNS(=O)(=O)c1cccc(OC[C@@H](O)CN[C@H]2COC3(CCN(S(=O)(=O)c4cccc(-c5ccc(CNC(C)C)cc5)c4)CC3)C2)c1 [Compound 362, 3-((S)-2-hydroxy-3-((R)-8-(4′-((isopropylamino)methyl)biphenyl-3-ylsulfonyl)-1-oxa-8-azaspiro[4.5]decan-3-ylamino)propoxy)-N-methylbenzenesulfonamide]
7.64	CNS(=O)(=O)c1cccc(OC[C@@H](O)CNC2COC3(CCN(S(=O)(=O)c4cccc(-c5cccc(CN)c5)c4)CC3)C2)c1 (stereo partly drawn) [Compound 67, 3-((2S)-3-(8-(3′-(aminomethyl)biphenyl-3-ylsulfonyl)-1-oxa-8-azaspiro[4.5]decan-3-ylamino)-2-hydroxypropoxy)-N-methylbenzenesulfonamide]
8.34	CNS(=O)(=O)c1cccc(OC[C@@H](O)CN[C@@H]2COC3(CCN(S(=O)(=O)c4ccc5ccccc5c4)CC3)C2)c1 [Compound 29, 3—((S)-2-hydroxy-3-((S)-8-(naphthalen-2-ylsulfonyl)-1-oxa-8-azaspiro[4.5]decan-3-ylamino)propoxy)-N-methylbenzenesulfonamide]
6.82	CNS(=O)(=O)c1cccc(OC[C@@H](O)CNC2COC3(CCN(S(=O)(=O)c4cccc(CO)c4)CC3)C2)c1 (stereo partly drawn) [Compound 390, 3-((2S)-2-hydroxy-3-(8-(3-(hydroxymethyl)phenylsulfonyl)-1-oxa-8-azaspiro[4.5]decan-3-ylamino)propoxy)-N-methylbenzenesulfonamide]
